Laboratory results reported in ChEMBL document CHEMBL4665844, “HDAC-Bax Multiple Ligands Enhance Bax-Dependent Apoptosis in HeLa Cells” (J Med Chem, 2020).
pEC50, pIC50: −log10 of the molar value. Each block holds one molecule with its values, some of them ahead of it. The source made the active and inactive calls. The calls are words filed in the database; no cut-off is given here.

Legend:
[1] = target: Histone deacetylase; test: Inhibition of HDAC in human HeLa nuclear extract using Boc-Lys(acetyl)-AMC or Boc-Lys (triflouroacetyl)-AMC as substrate preincubated for 5 mins followed by substrate addition and measured after 30 mins by fluorescence assay; assay type: subcellular, Nucleus
[2] = target: T1, Apoptosis regulator BAX (Homo sapiens, UniProt Q07812); test: Binding affinity to recombinant human full length His-tagged BAX expressed in Escherichia coli BL21 (DE3) cells preincubated for 30 min followed by FITC-BIM addition and measured after 20 mins by fluorescence polarization assay
T1 sequence (Q07812 whole entry): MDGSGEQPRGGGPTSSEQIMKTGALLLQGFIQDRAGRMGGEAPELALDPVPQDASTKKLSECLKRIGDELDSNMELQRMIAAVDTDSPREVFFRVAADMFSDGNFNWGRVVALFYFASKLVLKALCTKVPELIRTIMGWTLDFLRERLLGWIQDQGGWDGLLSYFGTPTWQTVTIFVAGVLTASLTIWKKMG

[3] = test system: HeLa; test: induction of apoptosis in siRNA-induced BAX knock down human HeLa cells at 0.3 to 3 uM after 48 hr by annexin V FITC and propidium iodide staining based flow cytometric analysis; assay type: functional, cell-based; details: dose microM 0.3-3, time 48.0 hrs
[4] = test system: HeLa; test: Synergistic antiproliferative activity against human HeLa cells assessed as assessed as reduction in cell viability after 48 hrs in presence of SAHA by MTT assay; assay type: functional, cell-based
[5] = target: Apoptosis regulator Bcl-2 (Homo sapiens, UniProt P10415); test: Binding affinity to full length His-tagged Bcl2 (unknown origin) preincubated for 30 min followed by 5-FAM Bid-BH3 addition and measured after 20 mins by fluorescence polarization assay
Sequence of Apoptosis regulator Bcl-2 (P10415 whole entry): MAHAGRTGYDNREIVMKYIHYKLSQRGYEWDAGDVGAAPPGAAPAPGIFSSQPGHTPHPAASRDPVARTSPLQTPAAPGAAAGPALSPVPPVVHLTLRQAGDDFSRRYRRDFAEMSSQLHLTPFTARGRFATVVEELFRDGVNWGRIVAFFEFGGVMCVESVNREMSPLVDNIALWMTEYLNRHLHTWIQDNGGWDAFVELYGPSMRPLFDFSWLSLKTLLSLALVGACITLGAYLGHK

[6] = target: Bcl-2-like protein 1 (Homo sapiens, UniProt Q07817); test: Binding affinity to full length His-tagged Bcl-xl (unknown origin) preincubated for 30 min followed by 5-FAM Bid-BH3 addition and measured after 20 mins by fluorescence polarization assay
Sequence of Bcl-2-like protein 1 (Q07817 whole entry): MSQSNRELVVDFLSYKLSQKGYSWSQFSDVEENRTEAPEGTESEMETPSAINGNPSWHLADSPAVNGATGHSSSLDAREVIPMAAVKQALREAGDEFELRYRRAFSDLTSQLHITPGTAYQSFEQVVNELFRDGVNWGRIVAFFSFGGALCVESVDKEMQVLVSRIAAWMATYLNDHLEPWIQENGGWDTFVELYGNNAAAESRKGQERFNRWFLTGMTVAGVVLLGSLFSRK

[7] = test system: HeLa; test: Induction of apoptosis in human HeLA cells at 3 uM after 48 hr by annexin V FITC and propidium iodide staining based flow cytometric analysis; assay type: functional
[8] = test system: HeLa; test: Induction of mitochondrial membrane potential loss in human HeLa cells at 1 to 3 uM after 24 hrs by TMRE staining based fluorescence assay; assay type: functional, cell-based; details: dose microM 1-3, time 24.0 hrs
[9] = test system: HeLa; test: Antiproliferative activity against siRNA-induced BAX knock down human HeLa cells after 48 hrs by MTT assay; assay type: functional, cell-based
[10] = target: Induced myeloid leukemia cell differentiation protein Mcl-1 (Homo sapiens, UniProt Q07820); test: Binding affinity to full length His-tagged Mcl1 (unknown origin) preincubated for 30 min followed by 5-FAM Bid-BH3 addition and measured after 20 mins by fluorescence polarization assay
Sequence of Induced myeloid leukemia cell differentiation protein Mcl-1 (Q07820 whole entry): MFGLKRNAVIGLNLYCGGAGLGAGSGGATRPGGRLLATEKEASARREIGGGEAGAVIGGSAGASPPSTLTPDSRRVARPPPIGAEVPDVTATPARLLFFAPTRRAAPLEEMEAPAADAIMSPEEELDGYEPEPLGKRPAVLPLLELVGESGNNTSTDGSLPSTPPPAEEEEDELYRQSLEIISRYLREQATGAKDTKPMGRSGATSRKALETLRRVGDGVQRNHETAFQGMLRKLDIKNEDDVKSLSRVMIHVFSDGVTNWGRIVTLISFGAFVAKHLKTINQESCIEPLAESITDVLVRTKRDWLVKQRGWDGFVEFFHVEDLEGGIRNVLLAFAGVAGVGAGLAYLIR

[11] = test system: HeLa; test: Antiproliferative activity against human HeLa cells assessed as reduction in cell viability after 48 hrs by MTT assay; assay type: functional, cell-based
[12] = test system: L02; test: Cytotoxicity against human L02 cells assessed as reduction in cell viability after 48 hrs by MTT assay; assay type: ADME, cell-based; details: L02, 48 h
[13] = test system: HeLa; test: Potency index, ratio of IC50 for SAHA to test compound IC50 for antiproliferation activity against human HeLa cells; assay type: functional
[14] = test system: HeLa; test: Up regulation of BAX protein in human HeLa cells at 0.3 to 3 uM after 6 to 12 hrs by Western blot analysis; assay type: functional, cell-based; details: dose microM 0.3-3, time hrs 6-12
[15] = target: Histone deacetylase 1 (Homo sapiens, UniProt Q13547); test: Inhibition of HDAC1 (unknown origin) in using Boc-Lys(acetyl)-AMC or Boc-Lys (triflouroacetyl)-AMC as substrate preincubated for 5 mins followed by substrate addition and measured after 30 mins by fluorescence assay
Sequence of Histone deacetylase 1 (Q13547 whole entry): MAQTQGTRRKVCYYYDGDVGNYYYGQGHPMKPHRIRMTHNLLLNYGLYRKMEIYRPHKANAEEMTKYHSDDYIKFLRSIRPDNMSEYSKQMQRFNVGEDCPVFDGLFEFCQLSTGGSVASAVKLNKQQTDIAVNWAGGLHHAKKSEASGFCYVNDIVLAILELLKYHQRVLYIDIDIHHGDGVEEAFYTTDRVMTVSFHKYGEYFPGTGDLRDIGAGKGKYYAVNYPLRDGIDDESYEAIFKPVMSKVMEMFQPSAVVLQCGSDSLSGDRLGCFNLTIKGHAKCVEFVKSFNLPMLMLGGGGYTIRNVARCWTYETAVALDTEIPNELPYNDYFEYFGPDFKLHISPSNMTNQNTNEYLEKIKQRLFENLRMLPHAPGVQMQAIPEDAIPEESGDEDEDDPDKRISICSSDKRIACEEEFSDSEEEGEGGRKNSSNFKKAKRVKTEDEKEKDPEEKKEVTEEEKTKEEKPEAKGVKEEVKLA

[16] = target: Histone deacetylase 2 (Homo sapiens, UniProt Q92769); test: Inhibition of HDAC2 (unknown origin) in using Boc-Lys(acetyl)-AMC or Boc-Lys (triflouroacetyl)-AMC as substrate preincubated for 5 mins followed by substrate addition and measured after 30 mins by fluorescence assay
Sequence of Histone deacetylase 2 (Q92769 whole entry): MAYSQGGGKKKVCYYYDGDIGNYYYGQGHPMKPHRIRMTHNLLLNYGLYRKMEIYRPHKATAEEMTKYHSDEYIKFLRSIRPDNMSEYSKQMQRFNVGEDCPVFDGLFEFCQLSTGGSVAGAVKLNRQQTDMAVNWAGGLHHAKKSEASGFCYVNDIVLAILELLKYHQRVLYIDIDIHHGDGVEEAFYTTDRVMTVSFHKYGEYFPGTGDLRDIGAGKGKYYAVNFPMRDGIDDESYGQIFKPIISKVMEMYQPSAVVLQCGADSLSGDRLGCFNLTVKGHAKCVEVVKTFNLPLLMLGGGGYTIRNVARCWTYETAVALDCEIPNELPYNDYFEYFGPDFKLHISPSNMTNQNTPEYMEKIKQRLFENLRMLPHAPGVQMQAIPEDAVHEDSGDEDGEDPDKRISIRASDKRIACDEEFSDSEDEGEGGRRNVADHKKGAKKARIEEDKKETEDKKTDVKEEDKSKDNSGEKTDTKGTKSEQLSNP

[17] = test system: HeLa; test: Induction of apoptosis in human HeLA cells at 0.3 to 1 uM after 48 hr by annexin V FITC and propidium iodide staining based flow cytometric analysis; assay type: functional, cell-based; details: dose microM 0.3-1, time 48.0 hrs
[18] = test system: HeLa; test: Induction of apoptosis in human HeLa cells assessed as membrane blebbing at 1 uM after 6 to 36 hrs by fluorescence microscopic method; assay type: functional, cell-based; details: time hrs 6-36
[19] = target: T1, Apoptosis regulator BAX; test: Activation of BAX in human HeLa cells assessed as confirmation activation at Bax6A7 after 6 to 12 hrs by immunoprecipitation assay; assay type: cell-based; details: filed as activator, dose microM 0.3-3, time hrs 6-12
[20] = test system: HeLa; test: Induction of apoptosis in human HeLa cells assessed as cellular shrinkage at 1 uM after 6 to 36 hrs by fluorescence microscopic method; assay type: functional, cell-based; details: time hrs 6-36
[21] = test system: HeLa; test: Induction of apoptosis in human HeLa cells assessed as formation of apoptotic bodies at 1 uM after 6 to 36 hrs by fluorescence microscopic method; assay type: functional, cell-based; details: time hrs 6-36
[22] = test system: HeLa; test: Potency index, ratio of IC50 for BSTA1 to test compound IC50 for antiproliferation activity against human HeLa cells; assay type: functional
[23] = test system: HeLa; test: Induction of mitochondrial membrane potential loss in human HeLa cells after 24 hrs by TMRE staining based fluorescence assay; assay type: functional, cell-based; details: dose microM 1-3, time 24.0 hrs
[24] = test system: HeLa; test: Induction of apoptosis in human HeLA cells at 1 uM after 48 hr by laser confocal microscopic based TUNEL assay; assay type: functional, cell-based
[25] = target: T2, Histone deacetylase 8 (Homo sapiens, UniProt Q9BY41); test: Inhibition of HDAC8 (unknown origin) in using Boc-Lys(acetyl)-AMC or Boc-Lys (triflouroacetyl)-AMC as substrate preincubated for 5 mins followed by substrate addition and measured after 30 mins by fluorescence assay
T2 sequence (Q9BY41 whole entry): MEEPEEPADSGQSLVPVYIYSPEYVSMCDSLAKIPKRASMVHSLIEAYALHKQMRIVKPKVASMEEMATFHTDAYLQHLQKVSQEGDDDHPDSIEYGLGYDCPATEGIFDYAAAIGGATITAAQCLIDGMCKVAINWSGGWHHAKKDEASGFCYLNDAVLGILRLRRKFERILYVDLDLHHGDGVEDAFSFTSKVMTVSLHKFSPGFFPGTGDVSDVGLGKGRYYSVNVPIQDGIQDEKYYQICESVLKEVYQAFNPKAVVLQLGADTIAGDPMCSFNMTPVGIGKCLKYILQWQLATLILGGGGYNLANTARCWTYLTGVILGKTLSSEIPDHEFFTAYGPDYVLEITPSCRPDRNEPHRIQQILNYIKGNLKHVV

[26] = test system: HeLa; test: induction of apoptosis in siRNA-induced BAX knock down human HeLa cells at 3 uM after 48 hr by annexin V FITC and propidium iodide staining based flow cytometric analysis; assay type: functional

IC50 [1]: 75.8 nM
pEC50 [2]: 6.03
SMILES: O=C(CCCCCOc1ccc(-c2csc(N3N=C(c4ccccc4)/C(=N/Nc4nccs4)C3=O)n2)cc1)NO

IC50 [1]: 674.8 nM
pEC50 [2]: 6.14
SMILES: O=C(CCCOc1ccc(-c2csc(N3N=C(c4ccccc4)/C(=N/Nc4nccs4)C3=O)n2)cc1)NO

IC50 [1]: 1341.5 nM
pEC50 [2]: 5.65
SMILES: O=C(/C=C/c1ccc(CNC(=O)c2ccc(-c3csc(N4N=C(c5ccccc5)/C(=N/Nc5nccs5)C4=O)n3)cc2)cc1)NO

IC50 [1]: 577.4 nM
pEC50 [2]: 6.06
SMILES: O=C(NO)c1ccc(-c2csc(N3N=C(c4ccccc4)/C(=N/Nc4nccs4)C3=O)n2)cc1

IC50 [1]: 98.8 nM
pEC50 [2]: 5.94
SMILES: O=C(CCCCCCNC(=O)c1ccc(-c2csc(N3N=C(c4ccccc4)/C(=N/Nc4nccs4)C3=O)n2)cc1)NO

IC50 [1]: 40.8 nM
pEC50 [2]: 6.07
SMILES: O=C(CCCCCCOc1ccc(-c2csc(N3N=C(c4ccccc4)/C(=N/Nc4nccs4)C3=O)n2)cc1)NO

IC50 [1]: 243.7 nM
pEC50 [2]: 6.00
SMILES: O=C(/C=C/c1ccc(COc2ccc(-c3csc(N4N=C(c5ccccc5)/C(=N/Nc5nccs5)C4=O)n3)cc2)cc1)NO

IC50 [1]: > 10000 nM
pEC50 [2]: 6.15
SMILES: O=C(O)c1ccc(-c2csc(N3N=C(c4ccccc4)/C(=N/Nc4nccs4)C3=O)n2)cc1

IC50 [1]: 85 nM
pEC50 [2]: 6.27
SMILES: O=C(NO)c1ccc(COc2ccc(-c3csc(N4N=C(c5ccccc5)/C(=N/Nc5nccs5)C4=O)n3)cc2)cc1

SMILES: O=C1/C(=N\Nc2nccs2)C(c2ccccc2)=NN1c1nc(-c2ccccc2)cs1
Activity [3]: inactive
pIC50 [4]: 6.09
pEC50 [5]: < 5.00
pEC50 [6]: < 5.00
Activity [7]: 19.2%
IC50 [1]: > 10000 nM
Activity [8]: Active
pIC50 [9]: < 4.70
pEC50 [10]: < 5.00
pIC50 [11]: 4.94
pIC50 [12]: 4.27

pEC50 [5]: < 5.00
pIC50 [15]: 7.18
pIC50 [16]: 6.70
pEC50 [6]: < 5.00
Activity [19]: Dose-dependent effect
IC50 [1]: 62.8 nM
pIC50 [9]: 5.12
pIC50 [25]: 5.96
pEC50 [2]: 6.41
pEC50 [10]: < 5.00
pIC50 [11]: 6.07
SMILES: O=C(NO)c1ccc(CNC(=O)c2ccc(-c3csc(N4N=C(c5ccccc5)/C(=N/Nc5nccs5)C4=O)n3)cc2)cc1
Ratio IC50 [13]: 15
Activity [14]: Active
Activity [17]: Active
Activity [18]: Active
Activity [7]: 60%
Activity [20]: Active
Activity [21]: Active
Ratio IC50 [22]: 3
Activity [23]: Dose-dependent effect
Activity [24]: Active
Activity [26]: 14.8%
pIC50 [12]: 4.19

IC50 [1]: 87.5 nM
pEC50 [2]: 6.09
SMILES: O=C(CCCCCNC(=O)c1ccc(-c2csc(N3N=C(c4ccccc4)/C(=N/Nc4nccs4)C3=O)n2)cc1)NO

IC50 [1]: 118.5 nM
pEC50 [2]: 6.01
SMILES: O=C(CCCCOc1ccc(-c2csc(N3N=C(c4ccccc4)/C(=N/Nc4nccs4)C3=O)n2)cc1)NO

pEC50 [2]: < 5.00
SMILES: O=C(CCCCCCC(=O)Nc1ccccc1)NO [VORINOSTAT]
Activity [3]: inactive
Activity [14]: Active
Activity [7]: 47.1%
Activity [8]: Active

IC50 [1]: 207.4 nM
pEC50 [2]: 6.14
SMILES: O=C(CCCCNC(=O)c1ccc(-c2csc(N3N=C(c4ccccc4)/C(=N/Nc4nccs4)C3=O)n2)cc1)NO

IC50 [1]: 135.2 nM
pEC50 [2]: 6.27
SMILES: O=C(CCCCCCCOc1ccc(-c2csc(N3N=C(c4ccccc4)/C(=N/Nc4nccs4)C3=O)n2)cc1)NO
